# Reference: BindingDB's records for doi:10.1021/acsmedchemlett.8b00576 (Usona Institute, 2019)
# pIC50: −log10 of the molar value.
# Molecular target: GTPase KRas (Homo sapiens, UniProt P01116)
# Assay: Inhibition of GDP loaded biotin-labeled KRAS G12C mutant (unknown origin) assessed as reduction in guanine nucleotide exchange preincubated for 4 hrs followed by GST-RAF-RBD addition in presence of GTPgammaS by FRET assay
# Sequence of GTPase KRas (P01116 whole entry G12C): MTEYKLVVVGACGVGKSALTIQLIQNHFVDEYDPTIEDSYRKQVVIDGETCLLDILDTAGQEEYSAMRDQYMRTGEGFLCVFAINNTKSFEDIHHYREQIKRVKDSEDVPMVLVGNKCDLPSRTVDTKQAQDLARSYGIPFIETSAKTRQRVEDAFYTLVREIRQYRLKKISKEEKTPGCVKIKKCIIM
structure (smiles),measurement,value
C=CC(=O)N1CCN2c3nc(N4CC(N(C)C)C4)nc4cc(-c5c(C)ccc6[nH]ncc56)c(Cl)c(c34)OC[C@@H]2C1,pIC50,7.68
